pIC50: −log10 of the molar value. Converted amounts (≈) assume the structure as drawn. Read-outs that look alike come from different tables or passages of the source.
Tests used:
Format in all cases: cell-based
Aspergillus Flavus [1] = experiment: Antifungal screening, well diffusion method; settings: 35° C. for 7 days
Method: Antifungal activities of the prepared nano-complex were studied against three fungal cultures using well diffusion method. The tested fungi were inoculated in Sabouraud dextrose broth medium (Hi-Media Mumbai) and incubated at 35° C. for 72 h and subsequently a suspension of about 1.60×10^4-6.00×10^4 c.f.u/ml was introduced agar plates and a sterile glass spreader was used for even distribution of the inoculum. The discs measuring 6 mm in diameter were prepared from Whatman No. 1 filter paper and sterilized by dry heat at 140° C. for 1 h. The sterile discs previously soaked in known concentration of the tested compounds were placed in Sabouraud dextrose Agar (SDA) plates. The plates were inverted and incubated at 35° C. for 7 days. The susceptibility was assessed on the basis of diameter of inhibition against albicans and non-albicans strain of fungi.

Aspergillus Flavus [2] = experiment: Minimum inhibitory concentration, serial broth dilution (fungus)
Method: (§1) Minimum inhibitory concentrations (MICs) are defined as the lowest concentration of an antimicrobial that will inhibit the visible growth of a microorganism after overnight incubation. MICs are used by diagnostic laboratories mainly to confirm resistance of microorganism to antimicrobial agents and also to monitor the activity of new antimicrobial agents. MIC was determined in vitro in liquid medium by serial broth dilution method.

Pseudomonas aeruginosa [3] = experiment: Antibacterial screening, agar well diffusion method; settings: 24 hours at 37° C.
Method: The susceptibilities of such growth rate of microorganisms were measured in vitro by agar well diffusion method. The tested nano complex was dissolved in dimethylsulfoxide at different concentrations (10 and 20 mg/ml). 1 cm^3 of a 24 h broth culture containing 10^6 CFU/cm^3 was placed in sterile Petri-dishes. Molten nutrient agar (15 cm^3) maintained at 45° C. was then poured into the Petri-dishes and allowed to solidify. Then holes of 6 mm diameter were formed in the agar using a sterile cork borer and these holes were completely filled with the test solutions. The plates were incubated for 24 hours at 37° C. After the incubation period, the zone of inhibition of each well was determined by measuring the zones of growth inhibition (mm) against the test microorganisms with zone reader (Hi Antibiotic zone scale). […] The measurements were made in triplicate for each compound and their average values are reported.

Pseudomonas aeruginosa [4] = experiment: Minimum inhibitory concentration, serial broth dilution (bacteria)
Method: as §1

Colon cancer cells line = experiment: Cytotoxic activity, Sulfo-Rhodamine-B-stain (SRB) assay; settings: colon cancer cell line, 48 hrs
Method: The anticancer activity was made at the National Cancer Institute, Cancer Biology Department, Pharmacology Department, Cairo University. The absorbance or optical density (O.D.) of each well was measured spectrophotometrically at 564 (nm) with an “ELIZA” micro plate reader (Meter tech. Σ 960, “USA”). Evaluation of the cytotoxic activity of the prepared nano-complex was carried out against Colon cancer cells line. The evaluation process was carried out in vitro using the Sulfo-Rhodamine-B-stain (SRB). Cells were placed in 96-multiwell plate (10^4 cells/well) for 24 hrs before processing with the complexes to allow attachment of cell to the wall of the plate. Various concentrations of the compounds under test in DMSO (0, 1, 2.5, 5 and 10 µM) were added to the cell monolayer. Monolayer cells were incubated with the complexes for 48 hrs at 37° C. and in atmosphere of 5% CO2. After 48 hrs, cells were fixed, rinsed, and stained with Sulfo-Rhodamine-B-stain. Excess stain was washed with acetic acid and attached stain was treated with Tris EDTA buffer. Color intensity was measured in an ELISA reader. IC50 was evaluated and potency was calculated with regard to percentage of change of (vistabline standard). The relation between surviving fraction and compound concentration is plotted to get the survival curve of each tumor cell line after the specified compound. […]

Row | Compound | inhibition zone (Aspergillus Flavus [1]) [mm] | MIC (Aspergillus Flavus [2]) [mg/L] | inhibition zone (Pseudomonas aeruginosa [3]) [mm] | MIC (Pseudomonas aeruginosa [4]; read-out: MIC) [mg/L] | pIC50 (Colon cancer cells line) | MIC (Pseudomonas aeruginosa [4]) [mg/L]
1 | OC(Cn1cncn1)(Cn1cncn1)c1ccc(F)cc1F [Flucazanol] | 27 | 2.50 (≈ 8.16 µM) | – | – | – | –
2 | CC1COc2c(N3CCN(C)CC3)c(F)cc3c(=O)c(C(=O)O)cn1c23 (stereo not drawn) [Ofloxacin] | – | – | 38 | 2.25 (≈ 6.23 µM) | – | –
3 | CC[C@]1(O)C[C@@H]2CN(CCc3c([nH]c4ccccc34)[C@@](C(=O)OC)(c3cc4c(cc3OC)N(C)[C@H]3[C@@](O)(C(=O)OC)[C@H](OC(C)=O)[C@]5(CC)C=CCN6CC[C@]43[C@@H]65)C2)C1 [vinblastine] | – | – | – | – | 5.24 | –
4 | [4{3,4-bis-[(5-bromo-2-hydroxy-benzylidene)-amino]-phenyl}-phenyl-methanone] Ru(III) complex [prepared nano complex] | 30 | 2.00 | 42 | – | – | 1.5

Source: US12180235B1, “Fabrication of novel nano-sized [4{3,4-bis-[(5-bromo-2-hydroxy-benzylidene)-amino]-phenyl }-phenyl-methanone] Ru(III) complex for pharmaceutical applications” (KING FAISAL UNIVERSITY, priority 2024, dated 2024)
